Measured values published in patent publication US20190367516A1 (Bayer Pharma Aktiengesellschaft, priority 2015, published 2019).
pEC50: −log10 of the molar value. Where two headings read alike, the source gives them in different places.

Legend:
human M2 receptor [1] = biological target: T1, human M2 receptor (Homo sapiens, UniProt P08172); details: for Efficiency: boosting of the acetylcholine effect at EC20 acetylcholine concentration; for Emax: read-out: Efficiency, boosting of the acetylcholine effect at EC20 acetylcholine concentration
T1 sequence (P08172 1-466): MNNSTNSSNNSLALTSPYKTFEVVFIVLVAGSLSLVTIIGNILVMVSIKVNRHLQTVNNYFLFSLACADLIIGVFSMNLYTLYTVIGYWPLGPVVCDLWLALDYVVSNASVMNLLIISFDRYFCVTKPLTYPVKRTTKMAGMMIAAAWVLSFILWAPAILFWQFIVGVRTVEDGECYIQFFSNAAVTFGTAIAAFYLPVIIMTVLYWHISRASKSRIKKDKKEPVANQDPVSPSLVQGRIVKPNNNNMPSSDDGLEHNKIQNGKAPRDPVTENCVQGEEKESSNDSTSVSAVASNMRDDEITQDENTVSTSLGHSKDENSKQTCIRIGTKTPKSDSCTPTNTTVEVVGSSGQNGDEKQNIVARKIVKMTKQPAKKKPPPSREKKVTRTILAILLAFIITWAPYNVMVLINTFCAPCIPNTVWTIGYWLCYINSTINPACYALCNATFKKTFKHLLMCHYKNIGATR

human M2 receptor [2] = biological target: T1, human M2 receptor; assay type: cell-based; details: α >1 = positive cooperativity
[3] = read-out: Receptor activity EC50, allosteric potency at EC20 acetylcholine, M2-GIRK1/4 reporter cells, in some cases mean of two or more determinations
[4] = shift of acetylcholine dose-response curve (Allosteric EC50 shift)
[5] = Receptor activity EC50, allosteric potency at EC20 acetylcholine, M2-GIRK1/4 reporter cells, in some cases mean of two or more determinations
[6] = Receptor activity EC50, M2-GIRK1/4 activation test, acetylcholine at EC20, allosteric potency, in some cases mean values from two or more determinations
[7] = shift in the acetylcholine dose-response curve (Allosteric EC50 shift, GraphPad PRISM)

Efficiency (human M2 receptor [1]; M2-GIRK1/4 reporter cells)	pEC50 (human M2 receptor [1]; [3])	Cooperativity (alpha factor) (human M2 receptor [2]; [4])	pEC50 (human M2 receptor [1]; [5])	Emax (human M2 receptor [1]; M2-GIRK1/4 reporter cells)	pEC50 (human M2 receptor [1]; [6])	Cooperativity (alpha factor) (human M2 receptor [2]; [7])	SMILES
99.0%	8.00	30	–	–	–	–	O=C(NC(CC(F)(F)F)C1CC1)c1cn(-c2c(F)cc(F)cc2F)c2nc(N3C[C@@H](O)CC3=O)ccc2c1=O (single isomer, unassigned) [Example 514]
100.0%	8.70	72	–	–	–	–	CCC(NC(=O)c1cn(-c2c(F)cc(F)cc2F)c2nc(N3C[C@@H](O)CC3=O)ccc2c1=O)C(F)(F)C(F)(F)F (single isomer, unassigned) [Example 521]
–	–	61	8.30	100%	–	–	CC(C)C(NC(=O)c1cn(-c2c(F)cc(F)cc2F)c2nc(N3C[C@@H](O)CC3=O)ccc2c1=O)C(F)(F)F (single isomer, unassigned) [Example 527]
100.0%	–	66	8.22	–	–	–	CC(C)C(NC(=O)c1cn(-c2c(F)cc(F)cc2F)c2nc(N3C[C@@H](O)CC3=O)ccc2c1=O)C(F)(F)F (single isomer, unassigned) [Example 528]
100.0%	–	37	8.05	–	–	–	O=C(N[C@@H](C1CC1)C(F)(F)F)c1cn(-c2c(F)cc(F)cc2Cl)c2nc(N3C[C@@H](O)[C@H](O)C3)ccc2c1=O (single isomer, unassigned) [Example 548]
–	–	49	7.89	97.5%	–	–	CC(C)C(NC(=O)c1cn(-c2c(F)cc(F)cc2F)c2nc(N3C[C@@H](O)[C@H](O)C3)ccc2c1=O)C(F)(F)F (single isomer, unassigned) [Example 553]
94.5%	–	54	8.00	–	–	–	CC(C)C(NC(=O)c1cn(-c2c(F)cc(F)cc2F)c2nc(N3C[C@@H](O)[C@H](O)C3)ccc2c1=O)C(F)(F)F (single isomer, unassigned) [Example 554]
–	–	44	7.96	100%	–	–	CCC(NC(=O)c1cn(-c2ccc(F)cc2F)c2nc(N3C[C@@H](O)CC3=O)ccc2c1=O)C(F)(F)C(F)(F)F (single isomer, unassigned) [Example 557]
–	–	62	8.40	95%	–	–	O=C(NC(c1ccccc1Cl)C(F)(F)F)c1cn(-c2c(F)cc(F)cc2F)c2nc(N3C[C@@H](O)[C@H](O)C3)ccc2c1=O (single isomer, unassigned) [Example 561]
100.0%	–	40	8.00	–	–	–	O=C(NC(c1ccccc1Cl)C(F)(F)F)c1cn(-c2c(F)cc(F)cc2F)c2nc(N3C[C@@H](O)[C@H](O)C3)ccc2c1=O (single isomer, unassigned) [Example 562]
100.0%	–	29	7.77	–	–	–	CCC(COC(F)(F)F)NC(=O)c1cn(-c2c(F)cc(F)cc2F)c2nc(N3C[C@@H](O)[C@H](O)C3)ccc2c1=O (single isomer, unassigned) [Example 578]
–	–	32	8.30	100%	–	–	O=C(NC(CC(F)(F)F)C(F)(F)F)c1cn(-c2c(F)cc(F)cc2F)c2nc(N3C[C@@H](O)CC3=O)ccc2c1=O (single isomer, unassigned) [Example 607]
100.0%	–	44	8.00	–	–	–	CC[C@H](NC(=O)c1cn(-c2c(F)cc(F)cc2F)c2nc(N3CC(O)C4(CC4)C3)ccc2c1=O)C(F)(F)F (single isomer, unassigned) [Example 621]
–	–	–	–	–	7.20	25	CCC(NC(=O)c1cn(-c2ccc(F)cc2F)c2nc(N3CCN(C(=O)OC)CC3)ccc2c1=O)C(F)(F)F (single isomer, unassigned; enantiomer a) [Example 24, ent-Methyl 4-{8-(2,4-difluorophenyl)-5-oxo-6-[(1,1,1-trifluorobutan-2-yl)carbamoyl]-5,8-dihydro-1,8-naphthyridin-2-yl}piperazine-1-carboxylate (Enantiomer A)]
–	–	–	–	–	7.08	20	CCC(NC(=O)c1cn(-c2ccc(F)cc2F)c2nc(N3CCN(C(=O)OC)CC3)ccc2c1=O)C(F)(F)F (single isomer, unassigned; enantiomer b) [Example 25, ent-Methyl 4-{8-(2,4-difluorophenyl)-5-oxo-6-[(1,1,1-trifluorobutan-2-yl)carbamoyl]-5,8-dihydro-1,8-naphthyridin-2-yl}piperazine-1-carboxylate (Enantiomer B)]
–	–	–	–	–	8.00	7	CN(C)c1ccc2c(=O)c(C(=O)NC(C(C)(C)C)C(F)(F)F)cn(-c3ccc(F)cc3F)c2n1 (stereo in doubt) [Example 132, 1-(2,4-Difluorophenyl)-7-(dimethylamino)-4-oxo-N-[(2S)-1,1,1-trifluoro-3,3-dimethylbutan-2-yl]-1,4-dihydro-1,8-naphthyridine-3-carboxamide]
–	–	–	–	–	6.82	33	CCC(NC(=O)c1cn(-c2ccc(F)cc2F)c2nc(N3CCC(O)C3)ccc2c1=O)C(F)(F)F (stereo in doubt) [Example 218, 1-(2,4-Difluorophenyl)-7-[3-hydroxypyrrolidin-1-yl]-4-oxo-N-[(2S)-1,1,1-trifluorobutan-2-yl]-1,4-dihydro-1,8-naphthyridine-3-carboxamide]
–	–	–	–	–	8.22	36	CC(C)(C)C(NC(=O)c1cn(-c2c(F)cc(F)cc2F)c2nc(N3CCNC3=O)ccc2c1=O)C(F)(F)F (stereo in doubt) [Example 360, 4-Oxo-7-(2-oxoimidazolidin-1-yl)-N-[(2S)-1,1,1-trifluoro-3,3-dimethylbutan-2-yl]-1-(2,4,6-trifluorophenyl)-1,4-dihydro-1,8-naphthyridine-3-carboxamide]
–	–	–	–	–	7.77	30	O=C(NC12CC3CC(CC(C3)C1)C2)c1cn(-c2ccc(F)cc2F)c2nc(N3CC[C@@H](F)[C@H](O)C3)ccc2c1=O [Example 3, 1-(2,4-Difluorophenyl)-7-[(3R,4R)-4-fluoro-3-hydroxypiperidin-1-yl]-4-oxo-N-(tricyclo[3.3.1.1^3,7]dec-1-yl)-1,4-dihydro-1,8-naphthyridine-3-carboxamide]
–	–	–	–	–	7.62	30	COC(=O)N1CCN(c2ccc3c(=O)c(C(=O)NC45CC6CC(CC(C6)C4)C5)cn(-c4ccc(F)cc4F)c3n2)CC1 [Example 4, Methyl 4-[8-(2,4-difluorophenyl)-5-oxo-6-(tricyclo[3.3.1.1^3,7]dec-1-ylcarbamoyl)-5,8-dihydro-1,8-naphthyridin-2-yl]piperazine-1-carboxylate]
–	–	–	–	–	7.47	15	O=C(NC12CC3CC(CC(C3)C1)C2)c1cn(-c2ccc(F)cc2F)c2nc(N3CCC(O)(O)C(F)(F)C3)ccc2c1=O [Example 6, 7-(3,3-Difluoro-4,4-dihydroxypiperidin-1-yl)-1-(2,4-difluorophenyl)-4-oxo-N-(tricyclo[3.3.1.1^3,7]dec-1-yl)-1,4-dihydro-1,8-naphthyridine-3-carboxamide]
–	–	–	–	–	7.47	34	O=C(NC12CC3CC(CC(C3)C1)C2)c1cn(-c2ccc(F)cc2F)c2nc(N3CCC(O)(O)[C@H](F)C3)ccc2c1=O [Example 7, 1-(2,4-Difluorophenyl)-7-[(3R)-3-fluoro-4,4-dihydroxypiperidin-1-yl]-4-oxo-N-(tricyclo[3.3.1.1^3,7]dec-1-yl)-1,4-dihydro-1,8-naphthyridine-3-carboxamide]
–	–	–	–	–	7.22	12	N#CC1CCCN(c2ccc3c(=O)c(C(=O)NC45CC6CC(CC(C6)C4)C5)cn(-c4ccc(F)cc4F)c3n2)C1 (stereo not drawn) [Example 10, 7-(3-Cyanopiperidin-1-yl)-1-(2,4-difluorophenyl)-4-oxo-N-(tricyclo[3.3.1.1^3,7]dec-1-yl)-1,4-dihydro-1,8-naphthyridine-3-carboxamide]
–	–	–	–	–	7.21	10	C[C@@H]1C[C@H](F)CN1c1ccc2c(=O)c(C(=O)NC34CC5CC(CC(C5)C3)C4)cn(-c3ccc(F)cc3F)c2n1 [Example 11, 1-(2,4-Difluorophenyl)-7-[(2R,4S)-4-fluoro-2-methylpyrrolidin-1-yl]-4-oxo-N-(tricyclo[3.3.1.1^3,7]dec-1-yl)-1,4-dihydro-1,8-naphthyridine-3-carboxamide]

SMILES	Efficiency (human M2 receptor [1]; M2-GIRK1/4 reporter cells)	pEC50 (human M2 receptor [1]; [3])	Cooperativity (alpha factor) (human M2 receptor [2]; [4])	pEC50 (human M2 receptor [1]; [5])	Emax (human M2 receptor [1]; M2-GIRK1/4 reporter cells)	pEC50 (human M2 receptor [1]; [6])	Cooperativity (alpha factor) (human M2 receptor [2]; [7])
O=C(NC12CC3CC(CC(C3)C1)C2)c1cn(-c2ccc(F)cc2F)c2nc(N3CC4C(C3)C4(F)F)ccc2c1=O (stereo not drawn) [Example 2, 7-(6,6-Difluoro-3-azabicylco[3.1.0]hex-3-yl)-1-(2,4-difluorophenyl)-4-oxo-N-(tricyclo[3.3.1.1^3,7]dec-1-yl)-1,4-dihydro-1,8-naphthyridine-3-carboxamide]	–	–	–	–	–	7.77	24
